Assay results: publication PMC6482291, “Anticonvulsant Activity of Pterostilbene in Zebrafish and Mouse Acute Seizure Tests” (Neurochemical Research, 2019)

How the values were obtained:
[1] = system: PTZ-induced seizures in mice; test: Timed iv PTZ seizure threshold test in mice; assay type: in vivo; settings: VPA 150 mg/kg ip, 15 min before test
Protocol: Each mice was placed in the cylindrical restrainer and the needle (27G, 3/4 in., Sterican®, B. Braun Melsungen AG, Melsungen, Germany) was injected into the lateral tail vein. The needle was attached by the polyethylene drain (PE20RW, Plastic One Inc. Roanoke, VA, USA) with the syringe containing 1% solution of PTZ (Sigma–Aldrich, St. Louis, MO, USA) in water and the syringe was located in the infuse pomp (model Physio 22, Hugo Sachs Elektronik–Harvard Apparatus GmbH, March-Hugstetten, Germany). The correct placement of the needle in the vein was confirmed based on the presence of the blood in the drain and the needle was protected against displacement by a peace of adhesive tape. Following injection, mice were took out from the restrainer and placed in the Plexiglas box for observation. The PTZ solution was infused into the vein at a constant rate of 0.2 ml/min. The time intervals from the start of infusion of PTZ solution to the beginning of three kinds of seizures, i.e., the first myoclonic twitch, generalized clonus with loss of the righting reflex and forelimb tonic extension, were noted. Infusion of PTZ solution was stopped immediately after onset of the tonic seizures, which usually were lethal. If animal survived the test, it was euthanized immediately. The threshold dose of PTZ (in mg/kg body weight) for each kind of seizures was calculated according to the following formula: PTZmg/kg=infusion durations×infusion rateml/s×PTZ concentrationmg/ml/weightkg
Experimental groups consisted of 9–13 animals. The data obtained in the iv PTZ test are presented as the threshold dose of PTZ (in mg/kg) + standard error of the mean (SEM) needed to elicit the respective kind of seizures. The data were analyzed by one-way ANOVA followed by the Tukey’s multiple comparison test. Statistical significance was noted when p values were equal or lower than 0.05.

[2] = system: 6 Hz-induced psychomotor seizures in mice; test: 6 Hz psychomotor seizure threshold test; assay type: in vivo; settings: VPA 50 mg/kg ip, 15 min before test; 95% confidence limits in brackets
Source text: Psychomotor (limbic) seizures were induced by transcorneal stimulation (6 Hz, 0.2 ms rectangular pulse, 3 s duration) generated by a Grass S48 stimulator coupled with a constant current unit CCU1 (both from Grass Technologies, West Warwick, RI, USA). Before stimulation a drop of ocular anesthetic, 1% tetracaine hydrochloride solution, was applied into the animals’ corneas. The electrodes were soaked in saline to ensure the good electrical contact. During the stimulation animals were restrained manually and immediately after the stimulation were placed in a Plexiglas box for observation of presence or absence of the psychomotor seizures. These seizures were characterized by immobilization or stun, often associated with rearing, forelimb clonus, twitching of vibrissae and elevated tail (Straub-tail), lasting at least 10 s from the stimulation. Lack of the above symptoms or their cessation within 10 s from the stimulation was considered as absence of seizure activity.
In the present study two 6 Hz-induced psychomotor seizure tests were performed: (1) the 6 Hz psychomotor seizure threshold test which employed stimulation at varied current intensities, and (2) the 6 Hz psychomotor seizure test with supramaximal stimulation at 32 mA and 44 mA.
In the 6 Hz psychomotor seizures threshold test, threshold current intensity (CS50 in mA) was estimated in groups of 20 animals according to the above mentioned up-and-down method.

[3] = system: maximal electroshock seizures in mice; test: Maximal electroshock seizure threshold (MEST) test; assay type: in vivo; settings: VPA 150 mg/kg ip
Source text: Seizures in the MEST test were evoked by applying a sine-wave alternating current (maximal output voltage 500 V, 50 Hz for 0.2 s) generated by constant current stimulator (Rodent Shocker, Type 221, Hugo Sachs Elektronik, Freiburg, Germany). The stimulation was delivered by saline-socked transcorneal electrodes. Before the stimulation 1% solution of tetracaine hydrochloride was applied into animals’ eyes for local anesthesia. During the stimulation animals were restrained manually and immediately after the stimulation they were placed in the Plexiglas box for observation. The endpoint evaluated in the test was the maximal electroconvulsion which was defined as extension of the hindlimbs above a 90° angle to the torso of animal.
The threshold for maximal electroshock was determined according to the up-and-down method described by Kimball et al.. The mice in the experimental group were subjected to the stimuli with different current intensities (range of 8–30 mA) which changes in 0.06-log steps. If stimulated mouse respond with seizures, the next mouse in the group was stimulated with current of intensity 0.06-log step lower than the previous one. […] Groups of 20 stimulated animals were used to calculate the threshold current strength (CS50 in mA; the current strength which induces tonic hindlimb extension in 50% of the tested animals) with SEM.
CS50 values were compared with one-way ANOVA followed by the Tukey’s multiple comparison test.

mice [4] = test: Grip-strength test; assay type: in vivo; settings: 15 min before test
Protocol: The acute effect of PTE on the skeletal muscles strength in mice was determined in the grip strength test. The apparatus for this test (BioSeb, Chaville, France) consisted of a steel wire grid (8 × 8 cm) connected to an isometric force transducer. Each mouse was lifted by tail and allowed to grasp the grid with its forepaws and then it was gently pulled backward until its released the grid. The maximal force in newtons (N) exerted by mouse before leaving the grid was recorded. The mean of three consecutive measurements for each animal was calculated and normalized to body weight (mN/g).
Experimental groups consisted of 12 animals. Results obtained in the grip-strength test were compared using one-way ANOVA followed by the Tukey’s post-hoc multiple comparison test.

mice [5] = test: Chimney test; assay type: in vivo; settings: 15 min before test
Protocol: The chimney test was performed to evaluate influence of PTE on motor coordination in mice. During the test mice had to climb backwards up the plastic transparent cylinder (inner diameter 3 cm and length 30 cm) with gravelly inside. The inability of mice to escape from the cylinder within 60 s was considered as an motor impairment. Results obtained in the test were presented as percent of impaired mice in groups of 10–12 animals and were compared with the Fisher’s exact probability test.

mice [6] = test: Forced swim test; assay type: in vivo; settings: IMI 20 mg/kg ip; p < 0.05
Protocol: The forced swim test was carried out according to the method described by Porsolt et al. to assess antidepressant properties of PTE. Mice were placed individually in a glass cylinder (25 cm high; 10 cm diameter) containing tap water to a depth of 11 cm. Water was maintained at temperature of 23–25 °C. Mice were permitted to swim for 6 min and duration of their immobility was recorded during the last 4 min of the test by a trained experimenter who was blinded to the treatment. Immobility time was recorded using cumulative stopwatches. Mouse was considered to be immobile when it was floating in the water without struggling and making no attempts to escape, it was making only these movements necessary to keep its head above the water. After each trial, the water in the cylinder was replaced with fresh water. Experimental groups consisted of 10 animals.
Data obtained in the forced swim test were expressed as the mean (in s) + SEM immobility time in each experimental group. Results were analyzed by one-way ANOVA.

MES seizures in mice = system: MES seizures in mice; design: method as in PMID 27600732; settings: cited from earlier work
[7] = system: 6 Hz psychomotor seizures in mice; design: method as in PMID 27600732; settings: cited from earlier work
rats = system: rats; design: method as in PMID 24717328; settings: acute and chronic administration; cited from earlier work
[8] = system: PTZ-induced seizures in rats; settings: PTZ test in rats; cited from earlier work

With `CCCC(CCC)C(=O)O` [VPA, valproic acid, reference compound] the “threshold for the first myoclonic twitch vs negative control” value ([1]; p < 0.001) was “Statistically significant increases”, the “increase of threshold for generalized clonic seizures vs negative control” value ([1]; p < 0.01) was “over 45%” and the “threshold for tonic forelimb extension vs negative control” value ([1]; p < 0.01) was “Statistically significant increase”. The “CS50 (psychomotor seizure threshold)” value [2] was 15.97 (15.13–16.85) mA, the “CS50 (seizure threshold)” value ([3]; 15 min before test, 95% confidence limits in brackets) was 14.13 (13.27–15.04) mA and the “increase of seizure threshold vs negative control” value ([3]; p < 0.001) was ~ 49%. For the same compound, the Neuromuscular strength (mice [4]; VPA 50 mg/kg ip) was 31.12 ± 1.20 mN/g, the Neuromuscular strength (mice [4]; VPA 150 mg/kg ip) was 25.36 ± 0.92 mN/g and the “Impairment of motor coordination (percentage of animals)” value (mice [5]; VPA 50 mg/kg ip) was 0%. The “Impairment of motor coordination (percentage of animals)” value (mice [5]; VPA 150 mg/kg ip) was 0%.

For `CN(C)CCCN1c2ccccc2CCc2ccccc21` [IMI, imipramine, reference compound], the “immobility time vs control” value (mice [6]) was “Statistically significant difference”.

In the case of `Oc1ccc(/C=C/c2cc(O)cc(O)c2)cc1` [RES, resveratrol], the “anticonvulsant activity in the MES test” value (MES seizures in mice) is given as “showed significant anticonvulsant activity neither in the MES nor 6 Hz psychomotor seizure tests”, the “anticonvulsant activity in the 6 Hz psychomotor seizure test” value [7] is given as “showed significant anticonvulsant activity neither in the MES nor 6 Hz psychomotor seizure tests” and the “immobility time in the forced swim test” value (rats) is given as “decreased immobility time”. For the same compound, the “duration of clonic seizures” value [8] was “reduced the duration” and the “incidence of the generalized tonic-clonic seizures” value [8] was “decreased incidence”.
